This is an account of results in patent US20180015080A1, “COMPOSITIONS AND METHODS FOR TREATMENT IN PARKINSON'S DISEASE PATIENTS” (priority 2013, published 2018).

For data set [1] the following is noted: cited from earlier work.
In a further data set the test system is PD patients with LIDS. Particulars: patients with idiopathic PD and LIDS, one oral dosage per day, 4 mg/day escalated to 24 mg/day.

Description for PD patients with LIDS: Patients with idiopathic PD and LIDS are enrolled in a clinical study. […] The patient population in this study is typical of those patients with LIDS. Upon randomization of patients for receiving study agent or placebo, there are no statistically significant differences in baseline parameters between the 2 groups.
The study consists of 3 phases: a treatment period, a drug taper period, and a follow-up period. Subjects are randomly assigned to receive either a nicotine salt or placebo (pbo). Treatment is with one oral dosage per day containing a nicotine salt or placebo. […]
Safety is assessed by incidences of adverse experiences (AE), clinical laboratory tests, serum cotinine, ECG and vital signs. Impulsive symptoms are assessed using the Jay Modified Minnesota Impulsive Disorders Interview (JayMidi). Withdrawal symptoms are evaluated using the Minnesota Nicotine Withdrawal Scale (MNWS-R).
Efficacy is assessed using the UPDRS (total of Parts II+III+IV), sum of Q32+Q33, Unified Dyskiensia Rating Scale (UDysRS) total scores and subscores, Lang-Fahn Dyskinesia Acitivties of Daily Living Scale (LF-ADL), CGI-C and PGI-C scales, and responder analyses (subjects with >25% improvement from baseline) on UDysRS total score and LF-ADL, and % subjects with any improvement on PGI-C and CGI-C. […]

Take `N[C@@H](Cc1ccc(O)c(O)c1)C(=O)O` [Levodopa, L-3,4-dihydroxyphenylalanine (S)-2-amino-3-(3,4-dihydroxyphenyl)propanoic acid]: the solubility in water result in data set [1] is given as “slightly soluble”.

Consider `CN1CCC[C@H]1c1cccnc1` [nicotine, 3-[(2S)-1-methylpyrrolidin-2-yl]pyridine], for which, in the data set on PD patients with LIDS, the “adverse experiences (AE)” value is listed as “no unexpected AEs occur”. The “improvement on patient- and physician-rated outcome measures (UPDRS, UDysRS, LF-ADL, CGI-C, PGI-C) compared to pbo” value in the data set with PD patients with LIDS (majority of outcome measures) was “trend towards statistically significant improvement”.
